Results taken from US8802597B2, “Herbicidal pyrimidines” (E I du Pont de Nemours and Company, priority 2003, dated 2014).

Key:
Format in all cases: in vivo
[1] = tested on: large crabgrass (DIGSA, Digitaria sanguinalis (L.) Scop.); test: Test H mixtures of compound 1 with diflufenzopyr; settings: foliage spray
Source text: (§1) This test evaluated the effect of mixtures of compound 1 with diflufenzopyr on several plant species. Seeds of test plants consisting of large crabgrass (DIGSA, Digitaria sanguinalis (L.) Scop.), lambsquarters (CHEAL, Chenopodium album L.), redroot pigweed (AMARE, Amaranthus retroflexus L.), cocklebur (XANST, Xanthium strumarium L.), barnyardgrass (ECHCG; Echinochloa crus-galli (L.) Beauv.), corn (ZEAMD, Zea mays L. cv. ‘Pioneer 33G26’), scarlet (red) morningglory (IPOCO, Ipomoea coccinea L.), giant foxtail (SETFA, Setaria faberi Herrm.) and velvetleaf (ABUTH, Abutilon theophrasti Medik.) were planted in pots containing Redi-Earth® planting medium (Scotts Company, 14111 Scottslawn Road, Marysville, Ohio 43041) comprising spaghnum peat moss, vermiculite, wetting agent and starter nutrients. Seeds of small-seeded species were planted about 1 cm deep; larger seeds were planted about 2.5 cm deep. Plants were grown in a greenhouse using supplemental lighting to maintain a photoperiod of about 14 hours; daytime and nighttime temperatures were about 25-30° C. and 22-25° C., respectively. Balanced fertilizer was applied through the watering system. The plants were grown for 7 to 11 days so that at time of treatment the plants ranged in height from 2 to 18 cm (1- to 4-leaf stage). Treatments consisted of Compound 1 and diflufenzopyr alone and in combination, suspended or dissolved in an aqueous solvent comprising glycerin and Tween nonionic surfactant and applied as a foliage spray using a volume of 541 L/ha. Each treatment was replicated four times. […] Treated plants and controls were maintained in the greenhouse and watered as needed with care to not wet the foliage for the first 24 hours after treatment. The effects on the plants approximately 3 weeks after treatment were visually compared to untreated controls. Plant response ratings were calculated as the means of the four replicates, based on a scale of 0 to 100 where 0 is no effect and 100 is complete control. Colby's Equation was used to determine the herbicidal effects expected from the mixtures. Colby's Equation (Colby, S. R. “Calculating Synergistic and Antagonistic Responses of Herbicide Combinations,” Weeds, 15(1), pp 20-22 (1967)) calculates the expected additive effect of herbicidal mixtures, and for two active ingredients is of the form: Pa+b=Pa+Pb−(PaPb/100) wherein Pa+b is the percentage effect of the mixture expected from additive contribution of the individual components, • Pa is the observed percentage effect of the first active ingredient at the same use rate as in the mixture, and • Pb is the observed percentage effect of the second active ingredient at the same use rate as in the mixture.

[2] = tested on: velvetleaf (ABUTH, Abutilon theophrasti Medik.); test: Test H mixtures of compound 1 with diflufenzopyr; settings: foliage spray
Source text: as §1

[3] = tested on: lambsquarters (CHEAL, Chenopodium album L.); test: Test H mixtures of compound 1 with diflufenzopyr; settings: foliage spray
Source text: as §1

[4] = tested on: redroot pigweed (AMARE, Amaranthus retroflexus L.); test: Test H mixtures of compound 1 with diflufenzopyr; settings: foliage spray
Source text: as §1

[5] = tested on: barnyardgrass (ECHCG; Echinochloa crus-galli (L.) Beauv.); test: Test H mixtures of compound 1 with diflufenzopyr; settings: foliage spray
Source text: as §1

[6] = tested on: giant foxtail (SETFA, Setaria faberi Herrm.); test: Test H mixtures of compound 1 with diflufenzopyr; settings: foliage spray
Source text: as §1

[7] = tested on: corn (ZEAMD, Zea mays L. cv. ‘Pioneer 33G26’); test: Test H mixtures of compound 1 with diflufenzopyr; settings: foliage spray
Source text: as §1

[8] = tested on: scarlet (red) morningglory (IPOCO, Ipomoea coccinea L.); test: Test H mixtures of compound 1 with diflufenzopyr; settings: foliage spray
Source text: as §1

[9] = tested on: cocklebur (XANST, Xanthium strumarium L.); test: Test H mixtures of compound 1 with diflufenzopyr; settings: foliage spray
Source text: as §1

[10] = tested on: smallflower umbrella sedge (CYPDI; Cyperus difformis); test: Test J mixtures of compound 58 with azimsulfuron, flooded paddy; settings: 21 days, scale 0-100
Source text: (§2) This test evaluated the effect of mixtures of compound 58 with azimsulfuron on several plant species. Three plastic pots (ca. 16-cm diameter) per rate were partially filled with sterilized Tama silt loam soil comprising a 35:50:15 ratio of sand, silt and clay and 2.6% organic matter. Separate plantings for each of the three pots were as follows. Seeds from the U.S. of ducksalad (HETLI; Heteranthera limosa), smallflower umbrella sedge (CYPDI; Cyperus difformis) and purple redstem (AMMCO; Ammannia coccinea), were planted into one 16-cm pot for each rate. Seeds from the U.S. of bearded sprangletop (LEFUF; Leptochloa fusca ssp. fascicularis), one stand of 9 or 10 water-seeded rice seedlings (ORYSW; Oryza sativa cv. ‘Japonica-M202’), and one stand of 6 transplanted rice seedlings (ORYSP; Oryza sativa cv. ‘Japonica-M202’) were planted into one 16-cm pot for each rate. Seeds from the U.S. of barnyardgrass (ECHCG; Echinochloa crus-galli), late watergrass (ECOR2; Echinochloa oryzicola), early watergrass (ECHOR; Echinochloa oryzoides) and junglerice (ECHCO; Echinochloa colona) were planted into one 16-cm pot for each rate. Plantings were sequential so that crop and weed species were at the 2.0 to 2.5-leaf stage at time of treatment.
(§3) Potted plants were grown in a greenhouse with day/night temperature settings of 29.5/26.7° C., and supplemental balanced lighting was provided to maintain a 16-hour photoperiod. Test pots were maintained in the greenhouse until test completion.
(§4) At time of treatment, test pots were flooded to 3 cm above the soil surface and then treated by application directly to the paddy water of test compounds formulated in a non-phytotoxic solvent mixture which included a surfactant. The pots were maintained at the 3-cm water depth for the duration of the test. Treatments consisted of compound 58 and azimsulfuron alone and in combination. Effects of treatments on rice and weeds were visually evaluated by comparison to untreated controls after 21 days. Plant response ratings were calculated as the means of the three replicates and are summarized in Table J. The ratings are based on a scale of 0 to 100 where 0 is no effect and 100 is complete control. A dash (-) response means no test result. Colby's Equation was used to determine the herbicidal effects expected from the mixtures.

[11] = tested on: junglerice (ECHCO; Echinochloa colona); test: as above; settings: 21 days, scale 0-100
Source text: as §2, §3, §4

[12] = tested on: water-seeded rice seedlings (ORYSW; Oryza sativa cv. ‘Japonica-M202’); test: as above; settings: 21 days, scale 0-100
Source text: as §2, §3, §4

[13] = tested on: ducksalad (HETLI; Heteranthera limosa); test: as above; settings: 21 days, scale 0-100
Source text: as §2, §3, §4

[14] = tested on: purple redstem (AMMCO; Ammannia coccinea); test: as above; settings: 21 days, scale 0-100
Source text: as §2, §3, §4

[15] = tested on: bearded sprangletop (LEFUF; Leptochloa fusca ssp. fascicularis); test: as above; settings: 21 days, scale 0-100
Source text: as §2, §3, §4

[16] = tested on: late watergrass (ECOR2; Echinochloa oryzicola); test: as above; settings: 21 days, scale 0-100
Source text: as §2, §3, §4

[17] = tested on: early watergrass (ECHOR; Echinochloa oryzoides); test: as above; settings: 21 days, scale 0-100
Source text: as §2, §3, §4

[18] = tested on: barnyardgrass (ECHCG; Echinochloa crus-galli); test: as above; settings: 21 days, scale 0-100
Source text: as §2, §3, §4

[19] = tested on: transplanted rice seedlings (ORYSP; Oryza sativa cv. ‘Japonica-M202’); test: as above; settings: 21 days, scale 0-100
Source text: as §2, §3, §4

Structure (SMILES): C/C(=N\NC(=O)Nc1cc(F)cc(F)c1)c1ncccc1C(=O)O [Diflufenzopyr, diflufenzopyr, reference compound]
- Obsd. observed effect (0 to 100 scale) ([1]; Diflufenzopyr 12 g a.i./ha): 0
- Obsd. observed effect (0 to 100 scale) ([1]; Diflufenzopyr 25 g a.i./ha): 1
- Obsd. observed effect (0 to 100 scale) ([1]; Diflufenzopyr 50 g a.i./ha): 8
- Obsd. observed effect (0 to 100 scale) ([2]; Diflufenzopyr 12 g a.i./ha): 50
- Obsd. observed effect (0 to 100 scale) ([2]; Diflufenzopyr 25 g a.i./ha): 78
- Obsd. observed effect (0 to 100 scale) ([2]; Diflufenzopyr 50 g a.i./ha): 68
- Obsd. observed effect (0 to 100 scale) ([3]; Diflufenzopyr 12 g a.i./ha): 61
- Obsd. observed effect (0 to 100 scale) ([3]; Diflufenzopyr 25 g a.i./ha): 76
- Obsd. observed effect (0 to 100 scale) ([3]; Diflufenzopyr 50 g a.i./ha): 80
- Obsd. observed effect (0 to 100 scale) ([4]; Diflufenzopyr 12 g a.i./ha): 73
- Obsd. observed effect (0 to 100 scale) ([4]; Diflufenzopyr 25 g a.i./ha): 91
- Obsd. observed effect (0 to 100 scale) ([4]; Diflufenzopyr 50 g a.i./ha): 95
- Obsd. observed effect (0 to 100 scale) ([5]; Diflufenzopyr 12 g a.i./ha): 5
- Obsd. observed effect (0 to 100 scale) ([5]; Diflufenzopyr 25 g a.i./ha): 10
- Obsd. observed effect (0 to 100 scale) ([5]; Diflufenzopyr 50 g a.i./ha): 23
- Obsd. observed effect (0 to 100 scale) ([6]; Diflufenzopyr 12 g a.i./ha): 41
- Obsd. observed effect (0 to 100 scale) ([6]; Diflufenzopyr 25 g a.i./ha): 58
- Obsd. observed effect (0 to 100 scale) ([6]; Diflufenzopyr 50 g a.i./ha): 59
- Obsd. observed effect (0 to 100 scale) ([7]; Diflufenzopyr 12 g a.i./ha): 0
- Obsd. observed effect (0 to 100 scale) ([7]; Diflufenzopyr 25 g a.i./ha): 0
- Obsd. observed effect (0 to 100 scale) ([7]; Diflufenzopyr 50 g a.i./ha): 0
- Obsd. observed effect (0 to 100 scale) ([8]; Diflufenzopyr 12 g a.i./ha): 77
- Obsd. observed effect (0 to 100 scale) ([8]; Diflufenzopyr 25 g a.i./ha): 83
- Obsd. observed effect (0 to 100 scale) ([8]; Diflufenzopyr 50 g a.i./ha): 82
- Obsd. observed effect (0 to 100 scale) ([9]; Diflufenzopyr 12 g a.i./ha): 43
- Obsd. observed effect (0 to 100 scale) ([9]; Diflufenzopyr 25 g a.i./ha): 60
- Obsd. observed effect (0 to 100 scale) ([9]; Diflufenzopyr 50 g a.i./ha): 68

Structure (SMILES): COc1cc(OC)nc(NC(=O)NS(=O)(=O)c2c(-c3nnn(C)n3)cnn2C)n1 [Azimsulfuron]
- CYPDI Obsd. ([10]; Azimsulfuron 2 g a.i./ha alone): 95
- CYPDI Obsd. ([10]; Azimsulfuron 4 g a.i./ha alone): 100
- CYPDI Obsd. ([10]; Azimsulfuron 8 g a.i./ha alone): 100
- ECHCO Obsd. ([11]; Azimsulfuron 2 g a.i./ha alone): 0
- ECHCO Obsd. ([11]; Azimsulfuron 4 g a.i./ha alone): 0
- ECHCO Obsd. ([11]; Azimsulfuron 8 g a.i./ha alone): 40
- ORYSW Obsd. ([12]; Azimsulfuron 2 g a.i./ha alone): 0
- ORYSW Obsd. ([12]; Azimsulfuron 4 g a.i./ha alone): 0
- ORYSW Obsd. ([12]; Azimsulfuron 8 g a.i./ha alone): 10
- HETLI Obsd. ([13]; Azimsulfuron 2 g a.i./ha alone): 30
- HETLI Obsd. ([13]; Azimsulfuron 4 g a.i./ha alone): 30
- HETLI Obsd. ([13]; Azimsulfuron 8 g a.i./ha alone): 100
- AMMCO Obsd. ([14]; Azimsulfuron 2 g a.i./ha alone): 0
- AMMCO Obsd. ([14]; Azimsulfuron 4 g a.i./ha alone): 0
- AMMCO Obsd. ([14]; Azimsulfuron 8 g a.i./ha alone): 95
- LEFUF Obsd. ([15]; Azimsulfuron 2 g a.i./ha alone): 0
- LEFUF Obsd. ([15]; Azimsulfuron 4 g a.i./ha alone): 0
- LEFUF Obsd. ([15]; Azimsulfuron 8 g a.i./ha alone): 0
- ECOR2 Obsd. ([16]; Azimsulfuron 2 g a.i./ha alone): 0
- ECOR2 Obsd. ([16]; Azimsulfuron 4 g a.i./ha alone): 0
- ECOR2 Obsd. ([16]; Azimsulfuron 8 g a.i./ha alone): 50
- ECHOR Obsd. ([17]; Azimsulfuron 2 g a.i./ha alone): 0
- ECHOR Obsd. ([17]; Azimsulfuron 4 g a.i./ha alone): 0
- ECHOR Obsd. ([17]; Azimsulfuron 8 g a.i./ha alone): 40
- ECHCG Obsd. ([18]; Azimsulfuron 2 g a.i./ha alone): 0
- ECHCG Obsd. ([18]; Azimsulfuron 4 g a.i./ha alone): 0
- ECHCG Obsd. ([18]; Azimsulfuron 8 g a.i./ha alone): 30
- ORYSP Obsd. ([19]; Azimsulfuron 2 g a.i./ha alone): 0
- ORYSP Obsd. ([19]; Azimsulfuron 4 g a.i./ha alone): 0
- ORYSP Obsd. ([19]; Azimsulfuron 8 g a.i./ha alone): 0
